Assay results taken from publication PMC9579194, “Selective macrocyclic peptide modulators of Lys63-linked ubiquitin chains disrupt DNA damage repair” (Nature Communications, 2022).
“And” between values parts separate entries of the source, which are not always exact repeats. Identical values can stand only once. Like-named read-outs stand apart in the source and are kept apart here. Blank lines part the entries; values can stand above or below the compound they belong to. *1 amine or outer side, *2 acyl side, *3 side chain or, on linkers, in order; H or OH if unused. Where a SMILES comes first, the peptide text is derived from it. Bridges are numbered along the chain shown (N, C = ends). The star is where a group is joined. Fluorescein(5-Mal) = O=C1OC2(c3ccc(O)cc3Oc3cc(O)ccc32)c2ccc(N3C(=O)CC(*)C3=O)cc21; X2 = CN(C)c1ccc2c(-c3ccc(N4C(=O)CC(*)C4=O)cc3C(=O)[O-])c3ccc(=[N+](C)C)cc-3oc2c1; X1 = O=C(c1cccc(C[*:2])c1)[*:1]; X3 = Fc1c(F)c(F)c(*)c(F)c1F

Columns and labels:
U2OS cells [1] = tested on: U2OS cells
Experimental: (§1) Cells were seeded for 24 h on Ibidi 8 well µ-slides treated with poly-L-lysine to reach ~90% confluency. Cells were then washed three times with warm PBS followed by incubation for 1 h with a warm serum-free medium (DMEM) containing peptides. Thereafter, cells were washed two times with warm PBS. Prior to imaging, cells were washed with an optical culture medium and stained with Hoechst (2 µg/ml). Live cell CLSM images were captured using Confocal Zeiss LSM 710 equipped with 40× NA 1.2 water immersion objective lens using a 1 AU pinhole settings. Different lasers were used for the different tags (Hoechst, TAMRA, FITC), and during analysis, the µ-slide was kept at 37 °C in a humidified chamber. Images were analyzed using ZEN 3.2 (blue edition).

Lys63 linked Di-Ub = molecular target: T1, Lys63 linked Di-Ub (Homo sapiens, UniProt P0CG48); assay: KD determination of fluorophore-labeled cyclic peptides, fluorescence-based assay; assay type: binding; settings: for Kd: fluorophore-labeled peptide, Y = Bmax*X/(KD + X); for Reading-1 / Reading-2 / Reading-3: raw fluorescence, blank not subtracted, Experiments 1-3
T1 construct: made in house; host or cells: total chemical synthesis (Fmoc-SPPS, ligation, desulfurization)
Experimental: (ii) Determination of KD value of CP1-FITC
According to the described procedure in literature,3 the KD value of FITC-labeled cyclic peptide 1 (CP1- […]
Supplementary Fig. 25 The carve represents the binding of CP1-FITC to Lys63 linked Di-Ub. Using Y = […]
All measurements were performed in three independent experiments. Bars represent mean values. All source data are provided as a Source […]
(iii) Determination of KD value of CP1-TAMRA
The fluorescence values were measured (λex = 510 nm and λem = 565 nm) in a similar way as described for CP1-FITC. The dissociation constant (KD) value of TAMRA-labeled CP1 (CP1-TAMRA) was calculated as 101.9 ± 3.6 nM. All measurements were performed in triplicates.
Supplementary Fig. 26 The carve represents the binding of CP1-TAMRA to Lys63 linked Di-Ub. Using […]
performed in triplicates. All measurements were performed in three independent experiments. Bars represent mean values. All source data are provided as a Source data file. […]
(iv) Determination of KD value of 2-FITC, 29
The dissociation constant (KD) value of FITC-labeled cyclic peptide 29 was calculated as 43.2± 4 nM.
Supplementary Fig. 27 The carve represents the binding of 2-FITC to Lys63 linked Di-Ub. Using Y = […]
All measurements were performed in triplicates. All measurements were performed in three independent experiments. Bars represent mean values. All source data are provided as a Source data file .
(v) Determination of KD value of 2-TAMRA, 26
CP1-FITC. The dissociation constant (KD) value of TAMRA-labeled 26 (2-TAMRA) was calculated as 47.4 ± 5.9 nM. All measurements were performed in triplicates.
Supplementary Fig. 28 The carve represents the binding of 2-TAMRA to Lys63 linked Di-Ub. Using Y = […]
in triplicates. All measurements were performed in three independent experiments. Bars represent mean […]
(vi) Determination of KD value of FITC labeled cyclic peptide 27a for cyclic peptide 20 […]
Supplementary Fig. 29 The carve represents the binding of 27a to Lys63 linked Di-Ub. Using Y = […]
values. All source data are provided as a Source data file. […]

U2OS cells [2] = assay: Cell uptake study by confocal microscopy; settings: live U2OS cells, 1 h, laser scanning confocal microscopy
Experimental: as §1

cells = assay: Cell membrane integrity analysis, SYTOX blue assay; assay type: cell-based; settings: up to 2 μM of cyclic peptides
Experimental: To assess the cell toxicity due to the loss of membrane integrity within the concentration range used for efficient live-cell delivery of synthetic cyclic peptide molecules, we proceed similarly to the cell uptake experiment and stain the cells with SYTOX™ Blue (100 nM)[44]. SYTOX™ blue dead cell stain is a high-affinity nucleic acid stain that easily penetrates cells with compromised plasma membranes but will not cross uncompromised cell membranes. […] CLSM images were analyzed using ZEN 3.2 (blue edition).

cell-permeability / delivery to cells (U2OS cells [1]): did not observe an efficient delivery
Kd (Lys63 linked Di-Ub): 43.2 ± 4 nM
SMILES: CC[C@H](C)[C@@H]1NC(=O)[C@H](Cc2c[nH]c3ccccc23)NC(=O)[C@H]([C@@H](C)CC)NC(=O)[C@H](CC(C)C)NC(=O)[C@H](CS)NC(=O)c2cccc(c2)CSC[C@@H](C(=O)NCC(=O)N[C@@H](C)C(=O)N[C@@H](CSC2CC(=O)N(c3ccc4c(c3)C(=O)OC43c4ccc(O)cc4Oc4cc(O)ccc43)C2=O)C(N)=O)NC(=O)[C@H](CC(C)C)NC(=O)[C@H]([C@@H](C)CC)NC(=O)[C@H](Cc2ccc(O)cc2)NC(=O)[C@@H]2CCCN2C(=O)[C@H](CC(N)=O)NC(=O)[C@H](CCCCN)NC(=O)[C@H](CO)NC(=O)[C@H](CO)NC(=O)CNC1=O (stereo partly drawn) [2-FITC] (CLIWIGSSKNPYILCGAC(Fluorescein(5-Mal))-NH2; linker N-15 via X1)

SMILES: CC[C@H](C)[C@@H]1NC(=O)[C@H](Cc2c[nH]c3ccccc23)NC(=O)[C@H]([C@@H](C)CC)NC(=O)[C@H](CC(C)C)NC(=O)[C@H](CS)NC(=O)c2cccc(c2)CSC[C@@H](C(=O)NCC(=O)N[C@@H](C)C(=O)N[C@@H](CSC2CC(=O)N(c3ccc(-c4c5ccc(=[N+](C)C)cc-5oc5cc(N(C)C)ccc45)c(C(=O)[O-])c3)C2=O)C(N)=O)NC(=O)[C@H](CC(C)C)NC(=O)[C@H]([C@@H](C)CC)NC(=O)[C@H](Cc2ccc(O)cc2)NC(=O)[C@@H]2CCCN2C(=O)[C@H](CC(N)=O)NC(=O)[C@H](CCCCN)NC(=O)[C@H](CO)NC(=O)[C@H](CO)NC(=O)CNC1=O (stereo partly drawn) [2-TAMRA] (CLIWIGSSKNPYILCGAC(X2)-NH2; linker N-15 via X1)
cell-permeability / delivery to cells (U2OS cells [2]): efficient cell-permeability
SYTOX signal (cell membrane integrity) (cells): did not detect SYTOX signal
Kd (Lys63 linked Di-Ub): 47.4 ± 5.9 nM

Kd (Lys63 linked Di-Ub): 285 ± 11.9 nM
SMILES: CC[C@H](C)[C@@H]1NC(=O)[C@H](Cc2c[nH]c3ccccc23)NC(=O)[C@H]([C@@H](C)CC)NC(=O)[C@H](CC(C)C)NC(=O)[C@H](CSc2c(F)c(F)c(F)c(F)c2F)NC(=O)c2cccc(c2)CSC[C@@H](C(=O)NCC(=O)N[C@@H](C)C(=O)N[C@@H](CSC2CC(=O)N(c3ccc4c(c3)C(=O)OC43c4ccc(O)cc4Oc4cc(O)ccc43)C2=O)C(N)=O)NC(=O)[C@H](CC(C)C)NC(=O)[C@H]([C@@H](C)CC)NC(=O)[C@H](Cc2ccc(O)cc2)NC(=O)[C@@H]2CCCN2C(=O)[C@H](CC(N)=O)NC(=O)[C@H](CCCCN)NC(=O)[C@H](CO)NC(=O)[C@H](CO)NC(=O)CNC1=O (stereo partly drawn) [27a] (C(X3)LIWIGSSKNPYILCGAC(Fluorescein(5-Mal))-NH2; linker N-15 via X1)

Reading-1 (Lys63 linked Di-Ub; conc. 10 nM): 1192 and 1298 and 1136
Reading-2 (Lys63 linked Di-Ub; conc. 10 nM): 1174 and 1279 and 1151
Reading-3 (Lys63 linked Di-Ub; conc. 10 nM): 1201 and 1288 and 1189
Reading-1 (Lys63 linked Di-Ub; conc. 20 nM): 1625 and 1719 and 1573
Reading-2 (Lys63 linked Di-Ub; conc. 20 nM): 1643 and 1748 and 1595
Reading-3 (Lys63 linked Di-Ub; conc. 20 nM): 1657 and 1774 and 1588
Reading-1 (Lys63 linked Di-Ub; conc. 40 nM): 2317 and 2485 and 2207
Reading-2 (Lys63 linked Di-Ub; conc. 40 nM): 2298 and 2498 and 2217
Reading-3 (Lys63 linked Di-Ub; conc. 40 nM): 2354 and 2474 and 2221
Reading-1 (Lys63 linked Di-Ub; conc. 50 nM): 2713 and 2954 and 2674
Reading-2 (Lys63 linked Di-Ub; conc. 50 nM): 2756 and 2925 and 2696
Reading-3 (Lys63 linked Di-Ub; conc. 50 nM): 2732 and 2851 and 2602
Reading-1 (Lys63 linked Di-Ub; conc. 100 nM): 3252 and 3463 and 3183
Reading-2 (Lys63 linked Di-Ub; conc. 100 nM): 3236 and 3622 and 3192
Reading-3 (Lys63 linked Di-Ub; conc. 100 nM): 3249 and 3477 and 3196
Reading-1 (Lys63 linked Di-Ub; conc. 150 nM): 3598 and 3825 and 3755
Reading-2 (Lys63 linked Di-Ub; conc. 150 nM): 3624 and 3817 and 3779
Reading-3 (Lys63 linked Di-Ub; conc. 150 nM): 3602 and 3844 and 3784
Reading-1 (Lys63 linked Di-Ub; conc. 200 nM): 4108 and 4275 and 4422
Reading-2 (Lys63 linked Di-Ub; conc. 200 nM): 4147 and 4231 and 4454
Reading-3 (Lys63 linked Di-Ub; conc. 200 nM): 4171 and 4244 and 4397
Reading-1 (Lys63 linked Di-Ub; conc. 250 nM): 4518 and 4629 and 4716
Reading-2 (Lys63 linked Di-Ub; conc. 250 nM): 4536 and 4677 and 4749
Reading-3 (Lys63 linked Di-Ub; conc. 250 nM): 4549 and 4687 and 4765
Reading-1 (Lys63 linked Di-Ub; conc. 300 nM): 4808 and 4979 and 5034
Reading-2 (Lys63 linked Di-Ub; conc. 300 nM): 4853 and 4995 and 5045
Reading-3 (Lys63 linked Di-Ub; conc. 300 nM): 4869 and 4968 and 5076
SMILES: CC[C@H](C)[C@@H]1NC(=O)[C@H](Cc2c[nH]c3ccccc23)NC(=O)[C@H]([C@@H](C)CC)NC(=O)[C@H](CC(C)C)NC(=O)[C@H](CC(C)C)NC(=O)c2cccc(c2)CSC[C@@H](C(=O)NCC(=O)N[C@@H](C)C(=O)N[C@@H](CSC2CC(=O)N(c3ccc4c(c3)C(=O)OC43c4ccc(O)cc4Oc4cc(O)ccc43)C2=O)C(N)=O)NC(=O)[C@H](CC(C)C)NC(=O)[C@H]([C@@H](C)CC)NC(=O)[C@H](Cc2ccc(O)cc2)NC(=O)[C@@H]2CCCN2C(=O)[C@H](CC(N)=O)NC(=O)[C@H](CCCCN)NC(=O)[C@H](CO)NC(=O)[C@H](CO)NC(=O)CNC1=O (stereo partly drawn) [CP1-FITC] (LLIWIGSSKNPYILCGAC(Fluorescein(5-Mal))-NH2; linker N-15 via X1)
